Patent publication US20110257177A1, “BENZYLTHIOTETRAZOLE INHIBITORS OF STORE OPERATED CALCIUM RELEASE” (CalciMedica, Inc., priority 2008, published 2011)

Test system: JR^251 or RBL cells
Experiment: Fluorescence-based assay of store-operated calcium entry, IC50 in either JR^251 or RBL cells, or both
Type: cell-based
Protocol: B. Fluorescence-based Assay of Store-Operated Calcium Entry in RBL-2H3Cells.
RBL-2H3 cells are obtained from ATCC and maintained in complete medium with 10% FBS at 37° C./6% CO2.
The day prior to performing the assay, RBL-2H3 cells are plated in 50 μL of complete medium in a 384 well plate. Cells are grown at 37° C./6% CO2 overnight and grow to 50-60% confluence by the next day. On the assay day, 1.5 μM Fluo-4-AM dye (Invitrogen) in complete medium is added and incubated for 1 hour at RT. Cells are washed twice in Ca^2+-free HBSS buffer and 35 μL Ca^2+-free HBSS buffer is added to each well. 10 μL of a test compound prepared in a Ca^2+-free HBSS solution at 4.5× of the desired concentration is added to a well and incubated for 5 minutes at RT. 10 μL of thapsigargin prepared in a Ca^2+-free HBSS solution at 5.5× of the desired concentration (5.5 uM) is added to each well and incubated for an additional 25 minutes. The initial baseline fluorescence signal is measured with a FLIPR^384 (Molecular Devices) plate reader. 5 μL of 12× calcium in HBSS (12 mM) is added and changes in cellular fluorescence are measured with the FLIPR^384 plate reader. In each well, the change in the fluorescent signal as a function of time due to calcium entry into the cell is determined by calculating the difference between the fluorescent signal measured 7 seconds after calcium addition and the initial baseline fluorescence signal at time zero (t=0). This parameter is designated Upslope. The IC50 value is calculated as the concentration at which 50% of the Upslope is inhibited.
C. Fluorescence-based Assay of Store-Operated Calcium Entry in Jurkat Cells.
Jurkat E6-1 cells were obtained from ATCC and maintained in complete medium with 10% FBS at 37° C./6% CO2.
The day prior to performing the assay, Jurkat E6-1 cells are seeded at a density of 2 million cells/mL in complete medium in a T-175 flask. Cells are grown at 37° C./6% CO2 overnight. On the following day, 1.5 μM Fluo-4-AM dye (Invitrogen) in complete medium is added and incubated for 1 hour at RT. Cells are harvested, washed twice in Ca^2+-free HBSS buffer and plated in 35 μL Ca^2+-free HBSS buffer in a 384 well plate. 10 μL of a test compound prepared in a Ca^2+-free HBSS solution at 4.5× of the desired concentration is added to a well and incubated for 5 minutes at RT. 10 μL of thapsigargin prepared in a Ca^2+-free HBSS solution at 5.5× of the desired concentration (5.5 uM) is added to each well and incubated for an additional 25 minutes. The initial baseline fluorescence signal is measured with a FLIPR^384 (Molecular Devices) plate reader. 5 μL of 12× calcium in HBSS (12 mM) is added and changes in cellular fluorescence are measured with the FLIPR^384 plate reader. In each well, the change in the fluorescent signal as a function of time due to calcium entry into the cell is determined by calculating the difference between the fluorescent signal measured 7 seconds after calcium addition and the initial baseline fluorescence signal at time zero (t=0). This parameter is designated Upslope. The IC50 value is calculated as the concentration at which 50% of the Upslope is inhibited.

Row | SMILES | IC50
1 | COc1ccc(CSc2nnnn2-c2ccc(C)cc2C)cc1F [1-(2,4-dimethylphenyl)-5-(3-fluoro-4-methoxybenzylthio)-1H-tetrazole] | < 10 µM
2 | CCOc1ccc(C(C)=O)cc1CSc1nnnn1-c1cc(C)ccc1C [1-(3-((1-(2,5-dimethylphenyl)-1H-tetrazol-5-ylthio)methyl)-4-ethoxyphenyl)ethanone] | < 10 µM
3 | COc1cccc(CSc2nnnn2-c2ccc(C)cc2C)c1 [1-(2,4-dimethylphenyl)-5-(3-methoxybenzylthio)-1H-tetrazole] | < 10 µM

Next, values leading:

Row | IC50 | SMILES
4 | < 10 µM | Cc1ccc(C)c(-n2nnnc2SCc2ccccc2Br)c1 [5-(2-bromobenzylthio)-1-(2,5-dimethylphenyl)-1H-tetrazole]
5 | < 10 µM | Cc1ccc(C)c(-n2nnnc2SC(F)(F)c2c(F)c(F)c(F)c(F)c2F)c1 [1-(2,5-dimethylphenyl)-5-(perfluorobenzylthio)-1H-tetrazole]
6 | < 10 µM | Cc1ccccc1CSc1nnnn1-c1cccc(C)c1C [1-(2,3-dimethylphenyl)-5-(2-methylbenzylthio)-1H-tetrazole]
